# Laboratory results: patent US20190134005A1 (BioMarin Pharmaceutical Inc., priority 2016, published 2019)
# Molecular target: T1, human CGT (Homo sapiens, UniProt Q16880)
# T1 sequence (Q16880 21-541): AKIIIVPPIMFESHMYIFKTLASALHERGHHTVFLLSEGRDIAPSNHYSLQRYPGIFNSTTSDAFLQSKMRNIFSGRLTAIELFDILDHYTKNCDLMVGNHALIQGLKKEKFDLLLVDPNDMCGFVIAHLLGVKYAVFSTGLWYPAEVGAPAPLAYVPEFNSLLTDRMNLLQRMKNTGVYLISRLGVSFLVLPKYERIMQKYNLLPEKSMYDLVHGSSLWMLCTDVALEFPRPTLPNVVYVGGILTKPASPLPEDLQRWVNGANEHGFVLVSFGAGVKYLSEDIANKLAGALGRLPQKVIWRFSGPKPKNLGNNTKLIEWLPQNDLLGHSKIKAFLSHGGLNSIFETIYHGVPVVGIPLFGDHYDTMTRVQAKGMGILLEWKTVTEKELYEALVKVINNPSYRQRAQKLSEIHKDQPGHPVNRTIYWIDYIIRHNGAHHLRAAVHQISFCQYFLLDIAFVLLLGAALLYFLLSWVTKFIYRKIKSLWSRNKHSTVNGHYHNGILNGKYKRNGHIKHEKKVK
# Assay: CGT Enzyme Assay (Biological Example 2, RapidFire/MS/MS method with 0.01% Tween 80 added)
# Type: biochemical
# Conditions: enzymatic assay, CHO/CGT lysate
# How it was run: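 Lysate of CHO cells transfected with full-length human CGT, 0.5% DMSO final, 0.01% Tween 80 added; reactions stopped with methanol:acetonitrile holding internal standard. C6-NBD-dihydro-galactosylceramide and C6-NBD-dihydro-ceramide measured by RapidFire/MS/MS (ESI negative), product peak area normalized to internal standard.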
row,IC50,Structure (SMILES)
1,< 1 µM,CC1(C)C(c2cccc(OC(F)F)c2)N(c2ccc(Cl)cc2)C(=O)N1c1ccc(Cl)cc1 (stereo not drawn) [Example 9]
2,< 1 µM,N#Cc1ccc(N2C(=O)N(c3ccc(C#N)cc3)C3(COC3)[C@@H]2c2cccc(OC(F)(F)F)c2)cc1 [Example 36-2]
3,< 1 µM,"CC1(C)[C@H](c2cccc(OC(F)F)c2)N(c2ccc(Cl)cc2)C(=O)N1c1ccc(Cl)cc1 [Example 9-2, (S)-1,3-bis(4-chlorophenyl)-5-(3-(difluoromethoxy)phenyl)-4,4-dimethylimidazolidin-2-one]"
4,10 to 30 µM,"Cc1ccc(N2C(=O)N(c3ccc(C#N)cc3)[C@H](c3cccc(C#N)c3)C2(C)C)cc1 [Example 48-1, (R)-3-(3-(4-cyanophenyl)-5,5-dimethyl-2-oxo-1-(p-tolyl)imidazolidin-4-yl)benzonitrile]"
5,< 1 µM,"CC1(C)[C@H](c2cccc(OC(F)(F)F)c2)N(c2ccc(C#N)cc2)C(=O)N1c1ccc(Cl)cc1 [Example 40-2, (S)-4-(3-(4-chlorophenyl)-4,4-dimethyl-2-oxo-5-(3-(trifluoromethoxy)phenyl)imidazolidin-1-yl)benzonitrile]"
6,< 1 µM,"Cc1ccc(N2C(=O)N(c3ccc(C#N)cc3)C3(COC3)[C@@H]2c2cccc(C#N)c2)cc1 [Example 57-2, (S)-3-(5-(4-cyanophenyl)-6-oxo-7-(p-tolyl)-2-oxa-5,7-diazaspiro[3.4]octan-8-yl)benzonitrile]"
